From the supplement of paper PMC9663587

Assays:
[1] = compound: CCCCOc1c(C(=O)c2c(F)cc(C)cc2F)c[nH]c2nncc1-2
Saracatinib/AZD0530 = compound: CN1CCN(CCOc2cc(OC3CCOCC3)c3c(Nc4c(Cl)ccc5c4OCO5)ncnc3c2)CC1 [Saracatinib/AZD0530]
Rucaparib = compound: CNCc1ccc(-c2[nH]c3cc(F)cc4c3c2CCNC4=O)cc1 [Rucaparib]
THZ531 [2] = compound: T1, CN(C)C/C=C/C(=O)Nc1ccc(C(=O)N2CCC[C@@H](Nc3ncc(Cl)c(-c4c[nH]c5ccccc45)n3)C2)cc1 [THZ531]
BVD523 = compound: CC(C)Nc1cc(-c2c[nH]c(C(=O)N[C@H](CO)c3cccc(Cl)c3)c2)c(Cl)cn1 [BVD523]
THZ1 [3] = compound: T2, CN(C)C/C=C/C(=O)Nc1ccc(C(=O)Nc2cccc(Nc3ncc(Cl)c(-c4c[nH]c5ccccc45)n3)c2)cc1 [THZ1]
[4] = compound: COc1ccc2c(c1)[C@]1(C[C@H]1c1ccc3c(/C=C/c4ccc(CN5C[C@@H](C)O[C@@H](C)C5)cc4)n[nH]c3c1)C(=O)N2
Alpelisib/BYL719 = compound: Cc1nc(NC(=O)N2CCC[C@H]2C(N)=O)sc1-c1ccnc(C(C)(C)C(F)(F)F)c1 [Alpelisib/BYL719]
[5] = compound: CO[C@@H](C)Cn1c(=O)n(C)c2cnc3ccc(-c4cncc(C(C)(C)O)c4)cc3c21
Cediranib/AZD2171 = compound: COc1cc2c(Oc3ccc4[nH]c(C)cc4c3F)ncnc2cc1OCCCN1CCCC1 [Cediranib/AZD2171]
[6] = compound: CC(=O)Nc1cccc(-n2c(=O)n(C3CC3)c(=O)c3c(Nc4ccc(I)cc4F)n(C)c(=O)c(C)c32)c1
AZD1775 = compound: C=CCn1c(=O)c2cnc(Nc3ccc(N4CCN(C)CC4)cc3)nc2n1-c1cccc(C(C)(C)O)n1 [AZD1775]
YKL-5-124 = compound: C=CC(=O)Nc1ccc(C(=O)Nc2[nH]nc3c2CN(C(=O)N[C@H](CN(C)C)c2ccccc2)C3(C)C)cc1 [YKL-5-124]; assay: increase in dead-cell fraction, 72 h; higher = more death;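 also: breast cancer cell lines in 384-well plates, stained with Hoechst plus LIVE/DEAD far red dye and imaged, cells above an LDR intensity threshold counted dead, Hoechst-negative corpses included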
[7] = compound: CC(=O)c1c(C)c2cnc(Nc3ccc(N4CCNCC4)cn3)nc2n(C2CCCC2)c1=O; assay: as above
THZ531 [8] = compound: T1, THZ531; assay: as above
THZ1 [9] = compound: T2, THZ1; assay: as above
[10] = compound: CCc1cnn2c(NCc3ccc[n+]([O-])c3)cc(N3CCCC[C@H]3CCO)nc12; assay: as above
LEE011/Ribociclib = compound: CN(C)C(=O)c1cc2cnc(Nc3ccc(N4CCNCC4)cn3)nc2n1C1CCCC1 [LEE011/Ribociclib]; assay: as above
Neratinib/HKI272 = compound: CCOc1cc2ncc(C#N)c(Nc3ccc(OCc4ccccn4)c(Cl)c3)c2cc1NC(=O)/C=C/CN(C)C [Neratinib/HKI272]; assay: as above
BSJ-03-123 = compound: CC(=O)c1c(C)c2cnc(Nc3ccc(N4CCN(CCOCCOCCOCCNC(=O)COc5cccc6c5C(=O)N(C5CCC(=O)NC5=O)C6=O)CC4)cn3)nc2n(C2CCCC2)c1=O [BSJ-03-123]; assay: as above
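For GR50, 72 h in this document: breast cancer and non-malignant breast epithelial cell lines, Deep Dye Drop or Dye Drop imaging, nine half-log doses, GR normalized to time-zero plates and DMSO-only controls.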

## BT20
[1]
  GR50, 72 h: 0.002 µM
Saracatinib/AZD0530
  GR50, 72 h: 4.37 µM
Rucaparib
  GR50, 72 h: > 10 µM
THZ531 [2]
  GR50, 72 h: > 1 µM
BVD523
  GR50, 72 h: > 10 µM
THZ1 [3]
  GR50, 72 h: 0.499 µM
[4]
  GR50, 72 h: 0.00274 µM
Alpelisib/BYL719
  GR50, 72 h: 2.03 µM
[5]
  GR50, 72 h: 0.00613 µM
Cediranib/AZD2171
  GR50, 72 h: 5.69 µM
[6]
  GR50, 72 h: > 1 µM
AZD1775
  GR50, 72 h: 1.9 µM
YKL-5-124; 0.001 µM
  increase in dead-cell fraction: 0.0021
YKL-5-124; 0.003162 µM
  increase in dead-cell fraction: 0.0037
YKL-5-124; 0.01 µM
  increase in dead-cell fraction: 0.0071
YKL-5-124; 0.03162 µM
  increase in dead-cell fraction: 0.0095
YKL-5-124; 0.1 µM
  increase in dead-cell fraction: 0.0196
YKL-5-124; 0.3162 µM
  increase in dead-cell fraction: 0.01
YKL-5-124; 1 µM
  increase in dead-cell fraction: 0.0231
YKL-5-124; 3.162 µM
  increase in dead-cell fraction: 0.0292
YKL-5-124; 10 µM
  increase in dead-cell fraction: 0.0824
[7]; 0.0003162 µM
  increase in dead-cell fraction: -0.0052
[7]; 0.001 µM
  increase in dead-cell fraction: -0.006
[7]; 0.003162 µM
  increase in dead-cell fraction: 0.0023
[7]; 0.01 µM
  increase in dead-cell fraction: 0.0093
[7]; 0.03162 µM
  increase in dead-cell fraction: 0.0193
[7]; 0.1 µM
  increase in dead-cell fraction: 0.0353
[7]; 0.3162 µM
  increase in dead-cell fraction: 0.0479
[7]; 1 µM
  increase in dead-cell fraction: 0.0439
[7]; 3.162 µM
  increase in dead-cell fraction: 0.0468
THZ531 [8]; 0.0001 µM
  increase in dead-cell fraction: -0.0017
THZ531 [8]; 0.0003162 µM
  increase in dead-cell fraction: 0.0012
THZ531 [8]; 0.001 µM
  increase in dead-cell fraction: -0.0051
THZ531 [8]; 0.003162 µM
  increase in dead-cell fraction: 0.0009
THZ531 [8]; 0.01 µM
  increase in dead-cell fraction: -0.0031
THZ531 [8]; 0.03162 µM
  increase in dead-cell fraction: -0.0002
THZ531 [8]; 0.1 µM
  increase in dead-cell fraction: 0.003
THZ531 [8]; 0.3162 µM
  increase in dead-cell fraction: 0.0032
THZ531 [8]; 1 µM
  increase in dead-cell fraction: 0.0097
THZ1 [9]; 0.0001 µM
  increase in dead-cell fraction: 0.0002
THZ1 [9]; 0.0003162 µM
  increase in dead-cell fraction: 0.0003
THZ1 [9]; 0.001 µM
  increase in dead-cell fraction: -0.0025
THZ1 [9]; 0.003162 µM
  increase in dead-cell fraction: 0.0002
THZ1 [9]; 0.01 µM
  increase in dead-cell fraction: -0.0011
THZ1 [9]; 0.03162 µM
  increase in dead-cell fraction: -0.0033
THZ1 [9]; 0.1 µM
  increase in dead-cell fraction: -0.0037
THZ1 [9]; 0.3162 µM
  increase in dead-cell fraction: -0.001
THZ1 [9]; 1 µM
  increase in dead-cell fraction: 0.212
[10]; 0.0001 µM
  increase in dead-cell fraction: 0.0075
[10]; 0.0003162 µM
  increase in dead-cell fraction: -0.0076
[10]; 0.001 µM
  increase in dead-cell fraction: -0.0014
[10]; 0.003162 µM
  increase in dead-cell fraction: -0.0106
[10]; 0.01 µM
  increase in dead-cell fraction: 0.0127
[10]; 0.03162 µM
  increase in dead-cell fraction: 0.456
[10]; 0.1 µM
  increase in dead-cell fraction: 0.789
[10]; 0.3162 µM
  increase in dead-cell fraction: 0.803
[10]; 1 µM
  increase in dead-cell fraction: 0.827
LEE011/Ribociclib; 0.001 µM
  increase in dead-cell fraction: 0.002
LEE011/Ribociclib; 0.003162 µM
  increase in dead-cell fraction: 0.0029
LEE011/Ribociclib; 0.01 µM
  increase in dead-cell fraction: 0.0024
LEE011/Ribociclib; 0.03162 µM
  increase in dead-cell fraction: 0.0037
LEE011/Ribociclib; 0.1 µM
  increase in dead-cell fraction: 0.0051
LEE011/Ribociclib; 0.3162 µM
  increase in dead-cell fraction: 0.0057
LEE011/Ribociclib; 1 µM
  increase in dead-cell fraction: 0.0086
LEE011/Ribociclib; 3.162 µM
  increase in dead-cell fraction: 0.0145
LEE011/Ribociclib; 10 µM
  increase in dead-cell fraction: 0.0266
Neratinib/HKI272; 0.0003162 µM
  increase in dead-cell fraction: -0.0021
Neratinib/HKI272; 0.001 µM
  increase in dead-cell fraction: -0.0068
Neratinib/HKI272; 0.003162 µM
  increase in dead-cell fraction: 0.001
Neratinib/HKI272; 0.01 µM
  increase in dead-cell fraction: 0.004
Neratinib/HKI272; 0.03162 µM
  increase in dead-cell fraction: 0.0258
Neratinib/HKI272; 0.1 µM
  increase in dead-cell fraction: 0.0444
Neratinib/HKI272; 0.3162 µM
  increase in dead-cell fraction: 0.0552
Neratinib/HKI272; 1 µM
  increase in dead-cell fraction: 0.0626
Neratinib/HKI272; 3.162 µM
  increase in dead-cell fraction: 0.169
BSJ-03-123; 0.001 µM
  increase in dead-cell fraction: -0.0015
BSJ-03-123; 0.003162 µM
  increase in dead-cell fraction: 0.0071
BSJ-03-123; 0.01 µM
  increase in dead-cell fraction: 0.0034
BSJ-03-123; 0.03162 µM
  increase in dead-cell fraction: 0.0088
BSJ-03-123; 0.1 µM
  increase in dead-cell fraction: 0.0041
BSJ-03-123; 0.3162 µM
  increase in dead-cell fraction: 0.0071
BSJ-03-123; 1 µM
  increase in dead-cell fraction: 0.0076
BSJ-03-123; 3.162 µM
  increase in dead-cell fraction: 0.008
BSJ-03-123; 10 µM
  increase in dead-cell fraction: 0.0323
